Source: patent US6943183B2 (Pfizer Inc, priority 2000, dated 2005)

Experiments:
[1] = biological target: T1, SF9 affinity purified rat FPT (Rattus norvegicus, UniProt Q02293+Q04631); assay: PFT (FPT) inhibitory activity assay, radiolabeled farnesyl pyrophosphate and biotinyl peptide, streptavidin beads; format: biochemical; details: HEPES buffer pH 7.4, 30° C., 30 minutes; read-out: FTase IC50
T1 construct: made in house; host or cells: Sf9 insect cells
Summary of the method: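 Rat FPT expressed in SF9 cells was incubated 30 minutes at 30° C. with compound (in 10% DMSO), radiolabeled farnesyl pyrophosphate and biotinylated peptide. Buffer: HEPES pH 7.4, ZnCl2 20 μM, MgCl2 and DTT 5 mM each, 0.1% PEG 8000, 5 mM potassium phosphate (also run without phosphate). Product captured on streptavidin beads in magnesium acetate/H3PO4 stop buffer.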

[2] = system: human colon carcinoma xenografts; details: 100 mg/kg, xenograft in nude mice; cited from earlier work
[3] = system: HT1080 human fibrosarcoma; details: 100 mg/kg, xenograft in nude mice; cited from earlier work
[4] = system: EJ-1 human bladder carcinoma; details: 100 mg/kg, xenograft in nude mice; cited from earlier work
[5] = system: human lung carcinoma with K-ras mutation and p53 deletion; details: nude mice; cited from earlier work
[6] = system: mammary and salivary carcinomas; details: daily administration, ras transgenic mice; cited from earlier work

Nc1nccn1CC(Oc1ccc2c(c1CCc1ccccc1)CCCC2=O)c1ccccc1 (stereo not shown) [Compound 63r, 6-[2-(2-Amino-imidazol-1-yl)-1-phenyl-ethoxy]-5-phenethyl-3,4-dihydro-2H-naphthalen-1-one]
IC50 [1]: 35 nM | melting point: 185 to 188 °C

CC[C@H](CO)NC(=O)c1ccccc1S(=O)(=O)Cc1c(O[C@H](Cn2ccnc2)c2ccccc2)ccc2c1CCCC2=O [Compound 243, N-[(1R)-1-(Hydroxymethyl)propyl]-2-{[(2-{[(1S)-2-(1H-imidazol-1-yl)-1-phenylethyl]oxy}-5-oxo-5,6,7,8-tetrahydro-1-naphthalenyl)methyl]sulfonyl}benzamide]
IC50 [1]: 0.2 nM

CC[C@H](CO)NC(=O)c1ccccc1SCc1c(O[C@H](Cn2ccnc2)c2ccccc2)ccc2c1CCCC2=O [Compound 244, N-[(1R)-1-(Hydroxymethyl)propyl]-2-{[(2-{[(1S)-2-(1H-imidazol-1-yl)-1-phenylethyl]oxy}-5-oxo-5,6,7,8-tetrahydro-1-naphthalenyl)methyl]sulfanyl}benzamide]
IC50 [1]: 0.2 nM

CC[C@H](CO)NC(=O)c1ccc(SCc2c(O[C@H](Cn3ccnc3)c3ccccc3)ccc3c2CCCC3=O)cc1 [Compound 245, N-[(1R)-1-(Hydroxymethyl)propyl]-4-{[(2-{[(1S)-2-(1H-imidazol-1-yl)-1-phenylethyl]oxy}-5-oxo-5,6,7,8-tetrahydro-1-naphthalenyl)methyl]sulfanyl}benzamide]
IC50 [1]: 0.2 nM

CC[C@H](CO)NC(=O)c1cccc(SCc2c(O[C@H](Cn3ccnc3)c3ccccc3)ccc3c2CCCC3=O)c1 [Compound 246, N-[(1R)-1-(Hydroxymethyl)propyl]-3-{[(2-{[(1S)-2-(1H-imidazol-1-yl)-1-phenylethyl]oxy}-5-oxo-5,6,7,8-tetrahydro-1-naphthalenyl)methyl]sulfanyl}benzamide]
IC50 [1]: 0.2 nM

CC[C@H](C)CNC(=O)c1ccc(S(=O)(=O)Cc2c(O[C@H](Cn3ccnc3)c3ccccc3)ccc3c2CCCC3=O)cc1 [Compound 247, 4-{[(2-{[(1S)-2-(1H-Imidazol-1-yl)-1-phenylethyl]oxy}-5-oxo-5,6,7,8-tetrahydro-1-naphthalenyl)methyl]sulfonyl}-N-[(2S)-2-methylbutyl]benzamide]
IC50 [1]: 0.2 nM

CC[C@H](C)CNC(=O)c1cccc(S(=O)(=O)Cc2c(O[C@H](Cn3ccnc3)c3ccccc3)ccc3c2CCCC3=O)c1 [Compound 248]
IC50 [1]: 0.2 nM

CC[C@H](C)CNC(=O)c1ccccc1S(=O)(=O)Cc1c(O[C@H](Cn2ccnc2)c2ccccc2)ccc2c1CCCC2=O [Compound 249]
IC50 [1]: 0.25 nM

CC[C@H](C)CNC(=O)c1ccccc1SCc1c(O[C@H](Cn2ccnc2)c2ccccc2)ccc2c1CCCC2=O [Compound 250, 2-{[(2-{[(1S)-2-(1H-Imidazol-1-yl)-1-phenylethyl]oxy}-5-oxo-5,6,7,8-tetrahydro-1-naphthalenyl)methyl]sulfanyl}-N-[(2S)-2-1-methylbutyl]benzamide]
IC50 [1]: 0.2 nM

CC[C@H](C)CNC(=O)c1ccc(SCc2c(O[C@H](Cn3ccnc3)c3ccccc3)ccc3c2CCCC3=O)cc1 [Compound 251, 4-{[(2-{[(1S)-2-(1H-Imidazol-1-yl)-1-phenylethyl]oxy}-5-oxo-5,6,7,8-tetrahydro-1-naphthalenyl)methyl]sulfanyl}-N-[(2S)-2-methylbutyl]benzamide]
IC50 [1]: 0.2 nM

CC[C@H](C)CNC(=O)c1cccc(SCc2c(O[C@H](Cn3ccnc3)c3ccccc3)ccc3c2CCCC3=O)c1 [Compound 252, 3-{[(2-{[(1S)-2-(1H-Imidazol-1-yl)-1-phenylethyl]oxy}-5-oxo-5,6,7,8-tetrahydro-1-naphthalenyl)methyl]sulfanyl}-N-[(2S)-2-methylbutyl]benzamide]
IC50 [1]: 0.2 nM

CC(O)CNC(=O)c1ccc(S(=O)(=O)Cc2c(O[C@H](Cn3ccnc3)c3ccccc3)ccc3c2CCCC3=O)cc1 (stereo partly drawn) [Compound 253, N-(2-Hydroxypropyl)-4-{[(2-{[(1S)-2-(1H-imidazol-1-yl)-1-phenylethyl]oxy}-5-oxo-5,6,7,8-tetrahydro-1-naphthalenyl)methyl]sulfonyl}benzamide]
IC50 [1]: 0.7 nM

CC(O)CNC(=O)c1cccc(S(=O)(=O)Cc2c(O[C@H](Cn3ccnc3)c3ccccc3)ccc3c2CCCC3=O)c1 (stereo partly drawn) [Compound 254, N-(2-Hydroxypropyl)-3-{[(2-{[(1S)-2-(1H-imidazol-1-yl)-1-phenylethyl]oxy}-5-oxo-5,6,7,8-tetrahydro-1-naphthalenyl)methyl]sulfonyl}benzamide]
IC50 [1]: 1 nM

CC(O)CNC(=O)c1ccccc1S(=O)(=O)Cc1c(O[C@H](Cn2ccnc2)c2ccccc2)ccc2c1CCCC2=O (stereo partly shown) [Compound 255]
IC50 [1]: 0.2 nM

CC(O)CNC(=O)c1ccc(SCc2c(O[C@H](Cn3ccnc3)c3ccccc3)ccc3c2CCCC3=O)cc1 (stereo partly drawn) [Compound 256, N-(2-Hydroxypropyl)-4-{[(2-{[(1S)-2-(1H-imidazol-1-yl)-1-phenylethyl]oxy}-5-oxo-5,6,7,8-tetrahydro-1-naphthalenyl)methyl]sulfanyl}benzamide]
IC50 [1]: 0.2 nM

CC(O)CNC(=O)c1ccccc1SCc1c(O[C@H](Cn2ccnc2)c2ccccc2)ccc2c1CCCC2=O (stereo partly drawn) [Compound 257, N-(2-Hydroxypropyl)-2-{[(2-{[(1S)-2-(1H-imidazol-1-yl)-1-phenylethyl]oxy}-5-oxo-5,6,7,8-tetrahydro-1-naphthalenyl)methyl]sulfanyl}benzamide]
IC50 [1]: 0.2 nM

CC(O)CNC(=O)c1cccc(SCc2c(O[C@H](Cn3ccnc3)c3ccccc3)ccc3c2CCCC3=O)c1 (stereo partly drawn) [Compound 258, N-(2-Hydroxypropyl)-3-{[(2-{[(1S)-2-(1H-imidazol-1-yl)-1-phenylethyl]oxy}-5-oxo-5,6,7,8-tetrahydro-1-naphthalenyl)methyl]sulfanyl}benzamide]
IC50 [1]: 0.2 nM

COCCNC(=O)c1cccc(SCc2c(O[C@H](Cn3ccnc3)c3ccccc3)ccc3c2CCCC3=O)c1 [Compound 259, 3-{[(2-{[(1S)-2-(1H-Imidazol-1-yl)-1-phenylethyl]oxy}-5-oxo-5,6,7,8-tetrahydro-1-naphthalenyl)methyl]sulfanyl}-N-(2-methoxyethyl)benzamide]
IC50 [1]: 0.2 nM

COCCNC(=O)c1ccccc1SCc1c(O[C@H](Cn2ccnc2)c2ccccc2)ccc2c1CCCC2=O [Compound 260, 2-{[(2-{[(1S)-2-(1H-Imidazol-1-yl)-1-phenylethyl]oxy}-5-oxo-5,6,7,8-tetrahydro-1-naphthalenyl)methyl]sulfanyl}-N-(2-methoxyethyl)benzamide]
IC50 [1]: 0.2 nM

COCCNC(=O)c1ccc(SCc2c(O[C@H](Cn3ccnc3)c3ccccc3)ccc3c2CCCC3=O)cc1 [Compound 261]
IC50 [1]: 0.2 nM

COCCNC(=O)c1cccc(S(=O)(=O)Cc2c(O[C@H](Cn3ccnc3)c3ccccc3)ccc3c2CCCC3=O)c1 [Compound 263, 3-{[(2-{[(1S)-2-(1H-Inimidazol-1-yl)-1-phenylethyl]oxy}-5-oxo-5,6,7,8-tetrahydro-1-naphthalenyl)methyl]sulfonyl}-N-(2-methoxyethyl)benzamide]
IC50 [1]: 0.2 nM

COCCNC(=O)c1ccccc1S(=O)(=O)Cc1c(O[C@H](Cn2ccnc2)c2ccccc2)ccc2c1CCCC2=O [Compound 264, 2-{[(2-{[(1S)-2-(1H-Imidazol-1-yl)-1-phenylethyl]oxy}-5-oxo-5,6,7,8-tetrahydro-1-naphthalenyl)-methyl]sulfonyl}-N-(2-methoxyethyl)benzamide]
IC50 [1]: 0.2 nM

COC(=O)[C@H](CCSC)NC(=O)[C@H](/C=C\[C@@H](/C=C/[C@@H](N)CS)C(C)C)Cc1ccccc1 [Compound B1086]
inhibition of tumor growth [2]: inhibit tumor growth | inhibition of tumor growth [3]: inhibit tumor growth | inhibition of tumor growth [4]: inhibit tumor growth

CSCC[C@H](NC(=O)c1ccc(NC[C@@H](N)CS)cc1-c1ccccc1)C(=O)O [FTI276]
block of tumor growth [5]: selectively block tumor growth

CC[C@H](C)[C@@H](CO[C@@H](Cc1ccccc1)C(=O)N[C@@H](CCS(C)(=O)=O)C(=O)OC(C)C)NC[C@@H](N)CS [L-744,832]
tumor regression [6]: tumor regression
